In PubChem BioAssay (NCI):
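Where inhibition never reached the appropriate level, the endpoint shown equals the highest concentration tested. Otherwise, values were interpolated linearly from a five-concentration, 48-hour dose response in 96-well plates. Definition used: TGI = concentration required for complete inhibition of growth.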

What was measured:
Assay in all cases: NCI-60 cell line screen, 48 h
HCC-2998 colon = test system: HCC-2998 colon
DU-145 prostate = test system: DU-145 prostate
SF-295 CNS = test system: SF-295 CNS
T-47D breast = test system: T-47D breast
SNB-75 CNS = test system: SNB-75 CNS
EKVX NSCLC = test system: EKVX NSCLC
M19-MEL melanoma = test system: M19-MEL melanoma
RPMI-8226 leukemia = test system: RPMI-8226 leukemia
MOLT-4 leukemia = test system: MOLT-4 leukemia
HT29 colon = test system: HT29 colon
KM20L2 colon = test system: KM20L2 colon
OVCAR-4 ovarian = test system: OVCAR-4 ovarian
HOP-18 NSCLC = test system: HOP-18 NSCLC
SK-MEL-5 melanoma = test system: SK-MEL-5 melanoma
M14 melanoma = test system: M14 melanoma
BT-549 breast = test system: BT-549 breast
HOP-62 NSCLC = test system: HOP-62 NSCLC
MDA-MB-435 = test system: MDA-MB-435
HCT-116 colon = test system: HCT-116 colon
UACC-62 melanoma = test system: UACC-62 melanoma
HCT-15 colon = test system: HCT-15 colon
CCRF-CEM leukemia = test system: CCRF-CEM leukemia
SN12C renal = test system: SN12C renal
MALME-3M melanoma = test system: MALME-3M melanoma
IGROV1 ovarian = test system: IGROV1 ovarian
A498 renal = test system: A498 renal
MDA-N = test system: MDA-N
UACC-257 melanoma = test system: UACC-257 melanoma
SR leukemia = test system: SR leukemia
KM12 colon = test system: KM12 colon
NCI-H460 lung = test system: NCI-H460 lung
LOX IMVI melanoma = test system: LOX IMVI melanoma
DMS 273 small cell lung = test system: DMS 273 small cell lung
SNB-19 CNS = test system: SNB-19 CNS
SF-268 CNS = test system: SF-268 CNS
HL-60(TB) leukemia = test system: HL-60(TB) leukemia
CAKI-1 renal = test system: CAKI-1 renal
ACHN renal = test system: ACHN renal
OVCAR-3 ovarian = test system: OVCAR-3 ovarian
UO-31 renal = test system: UO-31 renal
NCI-H226 lung = test system: NCI-H226 lung
786-0 renal = test system: 786-0 renal
HS 578T breast = test system: HS 578T breast
A549 NSCLC = test system: A549 NSCLC
MCF7 breast = test system: MCF7 breast
SK-OV-3 ovarian = test system: SK-OV-3 ovarian
NCI/ADR-RES ovarian = test system: NCI/ADR-RES ovarian
RXF 393 renal = test system: RXF 393 renal
SK-MEL-2 melanoma = test system: SK-MEL-2 melanoma
NCI-H23 lung = test system: NCI-H23 lung
TK-10 renal = test system: TK-10 renal
COLO 205 colon = test system: COLO 205 colon
SF-539 CNS = test system: SF-539 CNS
U251 CNS = test system: U251 CNS
OVCAR-8 ovarian = test system: OVCAR-8 ovarian
SW-620 colon = test system: SW-620 colon
DMS 114 small cell lung = test system: DMS 114 small cell lung
HOP-92 NSCLC = test system: HOP-92 NSCLC
SNB-78 CNS = test system: SNB-78 CNS
PC-3 prostate = test system: PC-3 prostate
SK-MEL-28 melanoma = test system: SK-MEL-28 melanoma
K-562 leukemia = test system: K-562 leukemia
NCI-H522 lung = test system: NCI-H522 lung
OVCAR-5 ovarian = test system: OVCAR-5 ovarian

Measured: TGI

N#CC(C#N)=C(N)/C(C#N)=C/c1ccc2[nH]ccc2c1
> 100 µM: HCC-2998 colon | DU-145 prostate | SF-295 CNS | T-47D breast | SNB-75 CNS | EKVX NSCLC | M19-MEL melanoma | RPMI-8226 leukemia | MOLT-4 leukemia | HT29 colon | KM20L2 colon | OVCAR-4 ovarian | HOP-18 NSCLC | SK-MEL-5 melanoma | M14 melanoma | BT-549 breast | HOP-62 NSCLC | MDA-MB-435 | HCT-116 colon | UACC-62 melanoma | HCT-15 colon | CCRF-CEM leukemia | SN12C renal | MALME-3M melanoma | IGROV1 ovarian | A498 renal | MDA-N | UACC-257 melanoma | SR leukemia | KM12 colon | NCI-H460 lung | LOX IMVI melanoma | DMS 273 small cell lung | SNB-19 CNS | SF-268 CNS | HL-60(TB) leukemia | CAKI-1 renal | ACHN renal | OVCAR-3 ovarian | UO-31 renal | NCI-H226 lung | 786-0 renal | HS 578T breast | A549 NSCLC | MCF7 breast | SK-OV-3 ovarian | NCI/ADR-RES ovarian | RXF 393 renal | SK-MEL-2 melanoma | NCI-H23 lung | TK-10 renal | COLO 205 colon | SF-539 CNS | U251 CNS | OVCAR-8 ovarian | SW-620 colon | DMS 114 small cell lung | HOP-92 NSCLC | SNB-78 CNS | PC-3 prostate | SK-MEL-28 melanoma | K-562 leukemia | NCI-H522 lung | OVCAR-5 ovarian
